Test results: patent EP0415456A2, “Xanthine compounds” (priority 1989, dated 1991)

Columns and labels:
male dd-strain mice = assay: acute toxicity test; format: in vivo
Protocol: […]. The Minimum lethal dose (MLD) of the compounds was determined by observing whether or not the mice were alive after 7 days of the administration.

Wistar rats = assay: diuretic effect; format: in vivo; conditions: 25 mg/kg oral, urine collected for 6 hours; for Increase in K⁺ excretion (%) / Increase in Na⁺excretion (%) / Increase in Urine (%): relative to control; for Na⁺/K⁺: relative value of control (control 1.00)
Protocol: Wistar rats (male: 150 - 300 g) were starved for 18 hours prior to the administration of the test compounds. […] Urine was collected for 6 hours after the administration. Urine volume was measured and the electrolytes (Na+ and K+) in the urine were determined with a flame photome[…], Hitachi Ltd., Japan). All parameters are expressed as relative values of control.

[1] = test system: glycerol-induced renal failure model; assay: renal-protecting effect (glycerol-induced renal failure model); format: in vivo; conditions: male Wistar rats; for suppression of increases of the serum creatinine and of urine-nitrogen: 0.01 - 10 mg/kg i.p., 24 hours after 50% glycerol s.c. (p < 0.05); for pathological examination of removed kidneys: state of kidneys: i.p., left kidney removed 24 hours after 50% glycerol s.c.
Protocol: A renal failure is a state wherein the renal function is lowered and the homeostasis of a body fluid can be no more maintained. It is known that an acute renal failure characteristic of uriniferous tubule disorder is caused by subcutaneous or intramuscular injection of glycerol to rats [Can. J. Physiol.
Male Wistar rats were kept deprived or water for 18 hours, and served for the test. A test compound was intraperitoneally administered to the rats (dosage: 1 mℓ/kg) and the rats were anesthetized with ether and 50% glycerol was subcutaneously administered (dosage: 0.8mℓ/100g) to the rats, pinching the dorsal skin. Twenty four hours after the administration of glycerol, the rats were anesthetized with ether and 5 mℓ of blood were collected from the abdominal aorta. The collected blood was allowed to stand for 30 minutes or longer and then centrifuged at 3,000 rpm for 10 minutes, and the amounts of the serum creatinine and urine-nitrogen (UN) contained in the serum were determined by auto analyzer (Olympus AU510) or measured by a creatinine test Wako (Jaffé method) and UN Test Wako (diacetylmonooxime direct method). Both are manufactured by Wako Pure Chemicals Co.
On the other hand, the left kidneys of the blood-sampled rats were removed and placed in formalin-filled vial bottles, and used as samples for the pathological examination.

Adenosine A₁ Receptor = biological target: T1, Adenosine A₁ Receptor (Cavia porcellus, UniProt P47745); assay: Adenosine A1 receptor binding (3H-CHA binding); design: species or system guinea pig; conditions: for Ratio of Ki Values [A₂/A₁]: A₂ Ki (rat corpus striatum) / A₁ Ki (guinea pig cerebrum); for Ki: calculated from Cheng-Prusoff's equation, ³H-CHA; for Ki / inhibition at 100 µM / inhibition at 10 µM: guinea pig cerebrum; for inhibition at 100 µM: concentration of tested compound 10⁻⁴ M; for inhibition at 100 µM / inhibition at 10 µM: ³H-CHA 1.1 nM; for inhibition at 10 µM: concentration of tested compound 10⁻⁵ M
T1 construct: from tissue; host or cells: guinea pig cerebrum membrane preparation
T1 sequence (P47745 1-326): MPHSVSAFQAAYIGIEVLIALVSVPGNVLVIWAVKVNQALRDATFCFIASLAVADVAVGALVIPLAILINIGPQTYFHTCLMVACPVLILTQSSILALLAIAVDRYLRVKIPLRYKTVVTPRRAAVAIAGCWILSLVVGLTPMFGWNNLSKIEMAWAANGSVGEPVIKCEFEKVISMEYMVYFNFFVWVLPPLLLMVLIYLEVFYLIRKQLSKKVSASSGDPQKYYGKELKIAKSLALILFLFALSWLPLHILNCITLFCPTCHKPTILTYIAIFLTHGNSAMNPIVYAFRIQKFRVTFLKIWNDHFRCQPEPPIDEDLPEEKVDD
Protocol: Cerebrum of a guinea pig was suspended into ice cooled 50 mM tris hydroxymethyl aminomethane hydrochloride (Tris HCl) buffer (pH = 7.7), by using Polytron homogenizer (manufactured by Kinematica Co.). The suspension was centrifuged (50,000 x g, 10 minutes), and the precipitate was resuspended by adding the same volume of 50 mM Tris HCl buffer. The suspension was centrifuged under the same conditions, and the precipitate obtained was suspended once again by adding 10 volumes of 50 mM Tris HCl. The tissue suspension was incubated at 37°C for 30 minutes in the presence of 0.02 units/mg tissue of adenosine deaminase (manufactured by Sigma Co.). The resulting tissue suspension was recentrifuged (50,000 x g, 10 minutes), and 50 mM Tris HCl was added to the precipitate to adjust the concentration of tissue to 10 mg (wet weight)/mℓ.
The mixture was incubated at 25°C for 90 minutes, and the resulting reaction was stopped by rapid vacuum filtration through a glass fiber filter (GF/C manufactured by Whatman Co.) followed by immediately washing three times with 5 mℓ each of ice cold 50 mM Tris HCl buffer. […] Its radioactivity was then determined by a scintillation counter (manufactured by Packard Instrument Co.).
The inhibition rate of the test compounds against the binding of A₁ […] (³H-CHA binding) was calculated from the following equation: [formula]
• 1. […] The inhibition constant (Ki value) shown in the table was calculated from Cheng-Prusoff's equation.

A₂ receptor = biological target: T2, A₂ receptor (Rattus norvegicus, UniProt P30543); assay: Adenosine A2 receptor binding (3H-NECA binding); conditions: for inhibition at 10 µM / inhibition at 100 µM: read-out: A₂ Receptor Inhibition (%); for Ki: ³H-NECA with CPA, rat corpus striatum, read-out: A₂ Receptor Ki
T2 construct: A precipitate was prepared from rat corpus striatum; from tissue; host or cells: rat corpus striatum membrane preparation
Protocol: A precipitate was prepared from rat corpus striatum in a similar manner as in 1) above. The precipitate was suspended by adding a 50 mM Tris HCl buffer containing 10 mM magnesium chloride and 0.02 unit/mg (tissue) of adenosine deaminase (manufactured by Sigma Co.) to adjust the concentration of tissue to 5 mg (wet weight)/mℓ.
The mixture was incubated at 25°C within 120 minutes. The resulting mixture was treated in the same manner as in 1) above to determine its radioactivity.
The inhibition rate of the test compound against the binding of A₂ receptor (³H-NECA binding) was calculated from the following equation: [formula]

[2] = test system: zig-zag strips of the trachea; assay: effects on passive Schultz-Dale reaction (antigen-induced contraction of sensitized trachea strips); design: species or system guinea pigs; conditions: Cavia porcellus; concentration to produce 50% relaxation of EWA (1µg/mℓ)-contracted trachea strips of passively sensitized guinea pigs; read-out: Passive S-D Reaction IC₅₀
Protocol: After 24 hours, the guinea pigs were stunned and exsanguinated, and then trachea were removed. The zig-zag strips of the trachea were prepared by the method of Emmerson, et al. [J. Pharm. […] The strips were suspended in Krebs-Henseleit solution at 37°C […] Antigen (EWA) was then introduced in the solution (final concentration; 1μg/ml), and the contraction was measured by […] After the contraction reached stable plateau, the compounds were cumulatively added in order to get concentration-relaxation curves. […]

T2 sequence (P30543 whole entry): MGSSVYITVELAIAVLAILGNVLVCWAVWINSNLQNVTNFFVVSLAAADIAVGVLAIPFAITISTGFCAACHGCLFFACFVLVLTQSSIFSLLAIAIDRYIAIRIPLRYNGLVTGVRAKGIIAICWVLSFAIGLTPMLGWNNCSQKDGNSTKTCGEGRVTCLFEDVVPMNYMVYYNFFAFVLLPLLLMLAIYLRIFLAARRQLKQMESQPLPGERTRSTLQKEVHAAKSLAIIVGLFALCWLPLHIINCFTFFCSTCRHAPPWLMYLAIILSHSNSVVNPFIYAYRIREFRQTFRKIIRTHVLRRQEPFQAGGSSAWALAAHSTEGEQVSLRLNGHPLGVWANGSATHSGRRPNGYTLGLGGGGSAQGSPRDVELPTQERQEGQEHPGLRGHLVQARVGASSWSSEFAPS

SMILES | Minimum lethal dose (MLD) (male dd-strain mice; mouse, in vivo, 10080 min) | Increase in K⁺ excretion (%) (Wistar rats) | Increase in Na⁺excretion (%) (Wistar rats) | Increase in Urine (%) (Wistar rats) | Na⁺/K⁺ (Wistar rats) | suppression of increases of the serum creatinine and of urine-nitrogen [1] | pathological examination of removed kidneys: state of kidneys [1] | Minimum lethal dose (MLD) (male dd-strain mice; 300 mg/kg orally administered, male dd-strain mice, observed 7 days after administration) | Ratio of Ki Values [A₂/A₁] (Adenosine A₁ Receptor) | Ki (Adenosine A₁ Receptor) | inhibition at 100 µM (Adenosine A₁ Receptor) | inhibition at 10 µM (Adenosine A₁ Receptor) | inhibition at 10 µM (A₂ receptor) | inhibition at 100 µM (A₂ receptor) | Ki (A₂ receptor) | IC50 [2]
CCCn1c(=O)c2c(nc([C@H]3C[C@@H]4C=C[C@@H]3C4)n2C)n(CCC)c1=O (relative stereo) [Compound 17, 8-[(1R*,4S*, 5S*)-2-Bicyclo[2.2.1]hepten-5-yl]-1,3-dipropyl-7-methylxanthine] | more than 300 mg/kg | 51% | 107% | 155% | 1.37 | significantly suppressed | significantly improved |  |  |  |  |  |  |  |  | 
CCCn1c(=O)[nH]c(=O)c2[nH]c([C@@H]3CC[C@H]4CCC[C@H]43)nc21 (relative stereo) [Compound 23, 8-[(1R*,2R*,5R*)-Bicyclo[3.3.0]octan-2-yl]-3-propylxanthine] |  |  |  |  |  | significantly suppressed | significantly improved | more than 300 mg/kg |  |  |  |  |  |  |  | 
CCCn1c(=O)c2[nH]c([C@H]3C[C@H]4CC[C@@H]3C4)nc2n(CCC)c1=O (relative stereo) [Compound 3, 8-[(1R*,2S*,5S*)-Bicyclo[2,2,1]heptan-2-yl]-1,3-dipropylxanthine] | more than 300 mg/kg | 29% | 137% | 154% | 1.84 |  |  |  | 75.0 | 4.4 nM | 100% | 100% | 83% | 90% | 330 nM | 
CCCn1c(=O)[nH]c(=S)c2[nH]c(C34CC5CC(CC3C5)C4)nc21 [Compound 26, 8-(Noradamantan-3-yl)-3-propyl-6-thioxanthine] |  |  |  |  |  |  |  |  |  |  |  |  |  |  |  | 22700 nM
CCCn1c(=O)c2[nH]c([C@@H]3CC[C@H]4CCC[C@H]43)nc2n(CCC)c1=O (relative stereo) [Compound 5, 8-[(1R*,2R*,5R*)-Bicyclo[3.3.0]octan-2-yl]-1,3-dipropylxanthine] | more than 300 mg/kg | 32% | 109% | 88% | 1.58 |  |  |  | 86.8 | 3.8 nM | 99% | 99% | 91% | 99% | 330 nM | 
CCCn1c(=O)c2[nH]c(C34CC5CC(CC3C5)C4)nc2n(CCC)c1=O [Compound 14, 8-(Noradamantan-3-yl)-1,3-dipropylxanthine] | more than 300 mg/kg | 68% | 244% | 315% | 2.05 | significantly suppressed | significantly improved |  |  |  | 101% | 101% | 63% | 77% | 380 nM | 
CCCn1c(=O)c2[nH]c(C34CC5CC(CC(C5)C3)C4)nc2n(CCC)c1=O [Compound 13, 8-(Adamantan-1-yl)-1,3-dipropylxanthine] | more than 300 mg/kg | 37% | 186% | 129% | 2.09 | significantly suppressed | significantly improved |  |  | 7.8 nM | 100% | 100% | 63% | 71% |  | 
CCCn1c(=O)c2[nH]c([C@H]3C[C@@H]4C=C[C@@H]3C4)nc2n(CCC)c1=O (relative stereo) [Compound 1, 8-[(1R*,4S*,5S*)-2-Bicyclo[2.2.1]hepten-5-yl]-1,3-dipropylxanthine] | more than 300 mg/kg | 36% | 73% | 106% | 1.27 |  |  |  | 92.7 | 5.5 nM | 99% | 99% | 88% | 97% | 510 nM | 
CCCn1c(=O)c2nc(C34CC5CC(CC3C5)C4)[nH]c2n(CCC)c1=S [Compound 31, 8-(Noradamantan-3-yl)-1,3-dipropyl-2-thioxanthine] | more than 300 mg/kg | 56% | 126% | 115% | 1.44 | significantly suppressed | significantly improved |  |  |  |  |  |  |  |  | 
